{"source": "patent US6355799B1", "about": "“Substituted benzene compounds, process for their preparation, and herbicidal and defoliant compositions containing them” (ISK Americas Incorporated, priority 1997, dated 2002)", "format_in_all_cases": "in vivo", "key": {"[1]": {"system": "barnyardgrass (Echinochloa crus-galli, ECHCG)", "experiment": "Post-emerge test, greenhouse herbicide activity screening", "conditions": "rating scale 0-100 (0 no damage, 100 complete death), 14 days after application", "procedure,_shortened": "(§1)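 Plants grown in 10 cm pots of sandy loam mix received acetone-dissolved compounds through a moving flat-fan nozzle. Doses ranged from 15 to 1000 g ai/ha. Pre-emerge pots were seeded one day earlier, post-emerge pots 8–21 days earlier. Fourteen days on, each pot was graded 0–100 for damage.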"}, "[2]": {"system": "common ragweed (Ambrosia artemisizfolia L., AMBEL)", "experiment": "Post-emerge test, greenhouse herbicide activity screening", "conditions": "rating scale 0-100 (0 no damage, 100 complete death), 14 days after application", "procedure,_shortened": "as §1"}, "[3]": {"system": "velvetleaf (Abutilon theophrasti, ABUTH)", "experiment": "Post-emerge test, greenhouse herbicide activity screening", "conditions": "rating scale 0-100 (0 no damage, 100 complete death), 14 days after application", "procedure,_shortened": "as §1"}, "[4]": {"system": "johnsongrass (Sorghum halepense, SORHA)", "experiment": "Post-emerge test, greenhouse herbicide activity screening", "conditions": "rating scale 0-100 (0 no damage, 100 complete death), 14 days after application", "procedure,_shortened": "as §1"}, "[5]": {"system": "green foxtail (Setaria viridis, SETVI)", "experiment": "Post-emerge test, greenhouse herbicide activity screening", "conditions": "rating scale 0-100 (0 no damage, 100 complete death), 14 days after application", "procedure,_shortened": "as §1"}, "[6]": {"system": "sicklepod (Cassia obtusifolia, CASOB)", "experiment": "Post-emerge test, greenhouse herbicide activity screening", "conditions": "rating scale 0-100 (0 no damage, 100 complete death), 14 days after application", "procedure,_shortened": "as §1"}, "[7]": {"system": "redroot pigweed (Amaranthus retroflexus, AMARE)", "experiment": "Post-emerge test, greenhouse herbicide activity screening", "conditions": "rating scale 0-100 (0 no damage, 100 complete death), 14 days after application", "procedure,_shortened": "as §1"}, "[8]": {"system": "lambsquarters (Chenopodium album, CHEAL)", "experiment": "Post-emerge test, greenhouse herbicide activity screening", "conditions": "rating scale 0-100 (0 no damage, 100 complete death), 14 days after application", "procedure,_shortened": "as §1"}, "[9]": {"system": "large crabgrass (Digitaria sanguinalis, DIGSA)", "experiment": "Post-emerge test, greenhouse herbicide activity screening", "conditions": "rating scale 0-100 (0 no damage, 100 complete death), 14 days after application", "procedure,_shortened": "as §1"}, "[10]": {"system": "ivyleaf morningglory (Ipomoea hederacea, IPOHE)", "experiment": "Post-emerge test, greenhouse herbicide activity screening", "conditions": "rating scale 0-100 (0 no damage, 100 complete death), 14 days after application", "procedure,_shortened": "as §1"}, "[11]": {"system": "redroot pigweed (Amaranthus retroflexus, AMARE)", "experiment": "Pre-emerge test, greenhouse herbicide activity screening", "conditions": "rating scale 0-100, 14 days after application", "procedure,_shortened": "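Compounds in acetone were track-sprayed at 15-1000 g ai/ha (187 l/ha) on sandy loam pots: pre-emerge one day after seeding, post-emerge at 2-3 leaf stage with 0.25% v/v non-ionic surfactant. Phytotoxicity was rated 14 days later on a 0 (no damage) to 100 (complete death) scale.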"}, "[12]": {"system": "upland rice (Oryza sp., var. Tebonnet, RICE)", "experiment": "Post-emerge test, crop safety", "conditions": "rating scale 0-100 (0 no damage, 100 complete death), 14 days after application", "procedure,_shortened": "as §1"}, "[13]": {"system": "field corn (Zea mays L., var. Dekalb 535, CORN)", "experiment": "Post-emerge test, crop safety", "conditions": "rating scale 0-100 (0 no damage, 100 complete death), 14 days after application", "procedure,_shortened": "as §1"}, "[14]": {"system": "barnyardgrass (Echinochloa crus-galli, ECHCG)", "experiment": "Pre-emerge test, greenhouse herbicide activity screening", "conditions": "rating scale 0-100, 14 days after application", "procedure,_shortened": "(§2)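 Rating: 0–100 visual injury, 14 DAA. Application: acetone, 187 l/ha, 15–1000 g ai/ha, flat-fan track sprayer with nozzle 40–45 cm above soil or canopy. Post-emerge runs used 0.25% v/v surfactant on 2–3 leaf plants.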"}, "[15]": {"system": "common ragweed (Ambrosia artemisizfolia L., AMBEL)", "experiment": "Pre-emerge test, greenhouse herbicide activity screening", "conditions": "rating scale 0-100, 14 days after application", "procedure,_shortened": "as §2"}, "[16]": {"system": "velvetleaf (Abutilon theophrasti, ABUTH)", "experiment": "Pre-emerge test, greenhouse herbicide activity screening", "conditions": "rating scale 0-100, 14 days after application", "procedure,_shortened": "as §2"}, "[17]": {"system": "johnsongrass (Sorghum halepense, SORHA)", "experiment": "Pre-emerge test, greenhouse herbicide activity screening", "conditions": "rating scale 0-100, 14 days after application", "procedure,_shortened": "as §2"}, "[18]": {"system": "green foxtail (Setaria viridis, SETVI)", "experiment": "Pre-emerge test, greenhouse herbicide activity screening", "conditions": "rating scale 0-100, 14 days after application", "procedure,_shortened": "as §2"}, "[19]": {"system": "sicklepod (Cassia obtusifolia, CASOB)", "experiment": "Pre-emerge test, greenhouse herbicide activity screening", "conditions": "rating scale 0-100, 14 days after application", "procedure,_shortened": "as §2"}, "[20]": {"system": "lambsquarters (Chenopodium album, CHEAL)", "experiment": "Pre-emerge test, greenhouse herbicide activity screening", "conditions": "rating scale 0-100, 14 days after application", "procedure,_shortened": "as §2"}, "[21]": {"system": "large crabgrass (Digitaria sanguinalis, DIGSA)", "experiment": "Pre-emerge test, greenhouse herbicide activity screening", "conditions": "rating scale 0-100, 14 days after application", "procedure,_shortened": "as §2"}, "[22]": {"system": "ivyleaf morningglory (Ipomoea hederacea, IPOHE)", "experiment": "Pre-emerge test, greenhouse herbicide activity screening", "conditions": "rating scale 0-100, 14 days after application", "procedure,_shortened": "as §2"}, "[23]": {"system": "upland rice (Oryza sp., var. Tebonnet, RICE)", "experiment": "Pre-emerge test, crop safety", "conditions": "rating scale 0-100, 14 days after application", "procedure,_shortened": "(§3)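 Herbicidal damage is scored 0 (none) to 100 (complete plant death) two weeks after a simulated field spray. Rates span 15–1000 g ai/ha, delivered in acetone at 187 l/ha. For post-emergence treatments, plants have 2–3 leaves and the spray carries 0.25% v/v non-ionic surfactant.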"}, "[24]": {"system": "field corn (Zea mays L., var. Dekalb 535, CORN)", "experiment": "Pre-emerge test, crop safety", "conditions": "rating scale 0-100, 14 days after application", "procedure,_shortened": "as §3"}}}
{"compound": "COc1c(Cl)cc(F)c(-n2c(=O)cc(C(F)(F)F)n(C)c2=O)c1CC(C)(Cl)C(=O)OCC(C)C", "note": "(stereo not drawn) [14-40]", "values": [{"measurement": "Post-emerge Herbicidal Activity, phytotoxicity rating ECHCG", "setting": "[1]; Rate 63 g ai/ha", "result": 100}, {"measurement": "Post-emerge Herbicidal Activity, phytotoxicity rating ECHCG", "setting": "[1]; Rate 250 g ai/ha", "result": 100}, {"measurement": "Post-emerge Herbicidal Activity, phytotoxicity rating AMBEL", "setting": "[2]; Rate 63 g ai/ha", "result": 90}, {"measurement": "Post-emerge Herbicidal Activity, phytotoxicity rating AMBEL", "setting": "[2]; Rate 250 g ai/ha", "result": 100}, {"measurement": "Post-emerge Herbicidal Activity, phytotoxicity rating ABUTH", "setting": "[3]; Rate 63 g ai/ha", "result": 90}, {"measurement": "Post-emerge Herbicidal Activity, phytotoxicity rating ABUTH", "setting": "[3]; Rate 250 g ai/ha", "result": 100}, {"measurement": "Post-emerge Herbicidal Activity, phytotoxicity rating SORHA", "setting": "[4]; Rate 63 g ai/ha", "result": 20}, {"measurement": "Post-emerge Herbicidal Activity, phytotoxicity rating SORHA", "setting": "[4]; Rate 250 g ai/ha", "result": 20}, {"measurement": "Post-emerge Herbicidal Activity, phytotoxicity rating SETVI", "setting": "[5]; Rate 63 g ai/ha", "result": 85}, {"measurement": "Post-emerge Herbicidal Activity, phytotoxicity rating SETVI", "setting": "[5]; Rate 250 g ai/ha", "result": 99}, {"measurement": "Post-emerge Herbicidal Activity, phytotoxicity rating CASOB", "setting": "[6]; Rate 63 g ai/ha", "result": 20}, {"measurement": "Post-emerge Herbicidal Activity, phytotoxicity rating CASOB", "setting": "[6]; Rate 250 g ai/ha", "result": 60}, {"measurement": "Post-emerge Herbicidal Activity, phytotoxicity rating AMARE", "setting": "[7]; Rate 63 g ai/ha", "result": 100}, {"measurement": "Post-emerge Herbicidal Activity, phytotoxicity rating AMARE", "setting": "[7]; Rate 250 g ai/ha", "result": 100}, {"measurement": "Post-emerge Herbicidal Activity, phytotoxicity rating CHEAL", "setting": "[8]; Rate 63 g ai/ha", "result": 100}, {"measurement": "Post-emerge Herbicidal Activity, phytotoxicity rating CHEAL", "setting": "[8]; Rate 250 g ai/ha", "result": 100}, {"measurement": "Post-emerge Herbicidal Activity, phytotoxicity rating DIGSA", "setting": "[9]; Rate 63 g ai/ha", "result": 20}, {"measurement": "Post-emerge Herbicidal Activity, phytotoxicity rating DIGSA", "setting": "[9]; Rate 250 g ai/ha", "result": 40}, {"measurement": "Post-emerge Herbicidal Activity, phytotoxicity rating IPOHE", "setting": "[10]; Rate 63 g ai/ha", "result": 30}, {"measurement": "Post-emerge Herbicidal Activity, phytotoxicity rating IPOHE", "setting": "[10]; Rate 250 g ai/ha", "result": 60}, {"measurement": "Pre-emerge herbicidal activity, phytotoxicity rating AMARE", "setting": "[11]; 63 g ai/ha", "result": 100}, {"measurement": "Pre-emerge herbicidal activity, phytotoxicity rating AMARE", "setting": "[11]; 250 g ai/ha", "result": 100}, {"measurement": "Post-emerge phytotoxicity rating RICE (crop damage)", "setting": "[12]; Rate 63 g ai/ha", "result": 15}, {"measurement": "Post-emerge phytotoxicity rating RICE (crop damage)", "setting": "[12]; Rate 250 g ai/ha", "result": 75}, {"measurement": "Post-emerge phytotoxicity rating CORN (crop damage)", "setting": "[13]; Rate 63 g ai/ha", "result": 35}, {"measurement": "Post-emerge phytotoxicity rating CORN (crop damage)", "setting": "[13]; Rate 250 g ai/ha", "result": 70}, {"measurement": "Pre-emerge herbicidal activity, phytotoxicity rating ECHCG", "setting": "[14]; 63 g ai/ha", "result": 10}, {"measurement": "Pre-emerge herbicidal activity, phytotoxicity rating ECHCG", "setting": "[14]; 250 g ai/ha", "result": 80}, {"measurement": "Pre-emerge herbicidal activity, phytotoxicity rating AMBEL", "setting": "[15]; 63 g ai/ha", "result": 30}, {"measurement": "Pre-emerge herbicidal activity, phytotoxicity rating AMBEL", "setting": "[15]; 250 g ai/ha", "result": 90}, {"measurement": "Pre-emerge herbicidal activity, phytotoxicity rating ABUTH", "setting": "[16]; 63 g ai/ha", "result": 100}, {"measurement": "Pre-emerge herbicidal activity, phytotoxicity rating ABUTH", "setting": "[16]; 250 g ai/ha", "result": 100}, {"measurement": "Pre-emerge herbicidal activity, phytotoxicity rating SORHA", "setting": "[17]; 63 g ai/ha", "result": 0}, {"measurement": "Pre-emerge herbicidal activity, phytotoxicity rating SORHA", "setting": "[17]; 250 g ai/ha", "result": 40}, {"measurement": "Pre-emerge herbicidal activity, phytotoxicity rating SETVI", "setting": "[18]; 63 g ai/ha", "result": 50}, {"measurement": "Pre-emerge herbicidal activity, phytotoxicity rating SETVI", "setting": "[18]; 250 g ai/ha", "result": 100}, {"measurement": "Pre-emerge herbicidal activity, phytotoxicity rating CASOB", "setting": "[19]; 63 g ai/ha", "result": 0}, {"measurement": "Pre-emerge herbicidal activity, phytotoxicity rating CASOB", "setting": "[19]; 250 g ai/ha", "result": 0}, {"measurement": "Pre-emerge herbicidal activity, phytotoxicity rating CHEAL", "setting": "[20]; 63 g ai/ha", "result": 95}, {"measurement": "Pre-emerge herbicidal activity, phytotoxicity rating CHEAL", "setting": "[20]; 250 g ai/ha", "result": 100}, {"measurement": "Pre-emerge herbicidal activity, phytotoxicity rating DIGSA", "setting": "[21]; 63 g ai/ha", "result": 60}, {"measurement": "Pre-emerge herbicidal activity, phytotoxicity rating DIGSA", "setting": "[21]; 250 g ai/ha", "result": 100}, {"measurement": "Pre-emerge herbicidal activity, phytotoxicity rating IPOHE", "setting": "[22]; 63 g ai/ha", "result": 0}, {"measurement": "Pre-emerge herbicidal activity, phytotoxicity rating IPOHE", "setting": "[22]; 250 g ai/ha", "result": 0}, {"measurement": "Pre-emerge phytotoxicity rating, crop damage RICE", "setting": "[23]; 63 g ai/ha", "result": 20}, {"measurement": "Pre-emerge phytotoxicity rating, crop damage RICE", "setting": "[23]; 250 g ai/ha", "result": 60}, {"measurement": "Pre-emerge phytotoxicity rating, crop damage CORN", "setting": "[24]; 63 g ai/ha", "result": 0}, {"measurement": "Pre-emerge phytotoxicity rating, crop damage CORN", "setting": "[24]; 250 g ai/ha", "result": 0}]}
